This is an account of results in EP4129319A1, “PORE-FORMING ANTIMICROBIAL PEPTIDES” (priority 2021, dated 2023).

Read-outs that look alike come from different tables or passages of the source. Ends that are not written are not given here.

The conditions of series [1]: PBS buffer.
Description: After storing at -20 °C, the peptides were dissolved in phosphate-buffered saline (PBS). […] The pH of all the buffers was adjusted to physiological value 7.4.
A short description of series [2]: Calcein leakage assay. Type of series: biochemical. The note with it: calcein leakage, POPC:POPG (1:1 mol/mol) LUVs; for Extent of leakage (in percentage) at increasing peptide-to-lipid ratio (mol/mol) 1:50: peptide-to-lipid ratio 1:50 (mol/mol); for Extent of leakage (in percentage) at increasing peptide-to-lipid ratio (mol/mol) 1:100: peptide-to-lipid ratio 1:100 (mol/mol). The protocol: (§1) Chemicals. […] (Prague, Czech Republic), and Caslo ApS (Kongens Lyngby, Denmark). […] The bacterial stock was stored at -80°C.
Calcein leakage assay. Pore-forming activity of the peptides was tested by their ability to leak the self-quenching fluorescent dye calcein entrapped within POPC:POPG (1:1 mol/mol) large unilamellar vesicles (LUVs). After mixing DiD to the lipid mixture (in the ratio 1:500 mol/mol), a thin lipid film was created by evaporating of the chloroform, traces of which were removed by desiccating overnight. The lipid film was then dissolved in calcein buffer, followed by vigorous vortexing. The lipid suspension was subsequently subjected to 10 freeze-thaw cycles. To obtain uniform LUVs, the sample was passed 50 times back and forth through an extruder stacked with 100 nm pore size polycarbonate membrane filter. Afterwards, the untrapped calcein was removed on a HiTrap Desalting Column (with Sephadex G-25 Superfine resin) by washing with PBS buffer. The concentration of the lipid suspension was then adjusted to 0.02 mM. The concentration of the peptide solution was 0.1 mM. The inventors monitored the peptide-induced release of calcein from LUVs by the increase in fluorescence intensity after adding increasing amounts of peptides to the LUVs under constant stirring at 25 °C. The investigated range of peptide/lipid molecular ratio was from 1:100 to 1:10. The excitation and emission wavelengths were set to 495 nm and 520 nm, respectively. Maximum fluorescence intensity was obtained by disrupting all the vesicles in the end by adding 10% Triton X-100. Experiments were performed in triplicates with independently prepared lipid vesicles.

The test system of series [3] is Gram-negative Escherichia coli TOP10 strain. It counts as cell-based. Conditions: broth microdilution assay; E. coli TOP10. The procedure: as §1
(§2) Broth microdilution assay. Antimicrobial activity of the peptides was investigated against Gram-negative Escherichia coli TOP10 strain and Gram-positive Staphylococcus carnosus CCM 4838T using broth microdilution assay, based on which the inventors determined the bacterial minimum inhibition concentration (MIC). After cross streaking with bacteria, the petri dishes (with MHA) were incubated for 24 h at 37 °C. Overnight grown cultures were then sub-cultured for 4-6 h at 37 °C in test tubes containing MHB. The sub-cultured solutions were subsequently diluted to a standard concentration of 10^6 colony forming units (CFU) per mL. Cell counts were determined by measuring the optical density at 600 nm. In a flat-bottomed 96 well plate, the inventors prepared a dilution series for the peptides and for the reference antibiotic ampicillin from 50 to 0.1 µM concentration, which was then inoculated with bacteria and incubated for 24 h at 37 °C. Growth control wells were free from peptides or ampicillin to show the viability of the bacteria, and sterility control wells were free from bacterial inoculation to verify the sterility of the medium. The bacterial growth was visually evaluated based on the turbidity. MIC was determined as the lowest concentrated well where no visible bacterial growth was observed. To test the bacteriostatic or bacteriocidal activity of the peptides, 50 µl solution from the highest concentrated well (i.e., 50 µM) was transferred to a test tube containing 4 mL sterile MHB and incubated for 24 h at 37 °C under constant stirring. Streaking of the same solution was done on MHA containing petri dishes and incubated for 24 h at 37 °C to confirm the morphology of the colonies grown. Experiments were performed in triplicates.

Series [4] concerns Gram-positive Staphylococcus carnosus CCM 4838T. Type of series: cell-based. Conditions: CCM 4838. The procedure:
as §1, §2

Series [5] concerns human red blood cells (HRBCs). Type of series: cell-based. The procedure: as §1
Hemolysis assay. Hemolytic toxicity of the peptides was evaluated from their ability to lyse the fresh human red blood cells (HRBCs) collected from the University Hospital (Brno, Czech Republic). To obtain the erythrocyte pellets, the blood samples were centrifuged twice at 700×g and subsequently, once at 1000×g, each for 8 min. at 4 °C, which was followed by thorough washing with PBS. Resuspension of the pellets was done in PBS to obtain 0.5% (vol/vol) RBC suspension. In a well plate with 96 V-shaped bottom wells, the peptides were added in a dilution series from 0.1 to 50 µM concentration. Subsequently, HRBC suspension was added in each well. Negative control wells contained only PBS and HRBC suspension without any peptide (i.e., 0% lysis), and positive control wells included 5 µM melittin in the HRBC suspension. After incubation for 1 h at 37 °C, the well plates were centrifuged at 1000×g for 10 min. at 4 °C. Subsequently, the supernatant was collected in a flat-bottomed well plate and the optical density of the released hemoglobin was measured for each well at 415 nm wavelength. The calculated absorbances from the wells were then normalized against the averaged absorbances of the positive and the negative control wells. EC50 value was calculated from the normalized absorbances indicating 50% hemolysis of HRBCs. Experiments were performed in triplicates with three independent blood samples.

Series [6] relates to Acinetobacter baumanni GSAB 164. It counts as cell-based. The note with it: ESKAPE panel; strain not given, ampicillin > 16 fits the 16-to-0.03 µM series of Evotec. The procedure: as §2
(§3) The antimicrobial susceptibility test of the most promising peptide against the recalcitrant ESKAPE pathogens was purchased from Evotec (Macclesfield, UK) for the following strains: Enterococcus faecium ATCC 700221, Staphylococcus aureus NRS 1, Klebsiella pneumoniae ATCC 700603, Acinetobacter baumanni GSAB 164, Pseudomonas aeruginosa ATCC 13437, Escherichia coli ATCC 25922 and Enterobacter aerogenes B207A, and was purchased from Essence Line (Praha, Czech Republic) against the following strains: Enterococcus faecium ATCC 29212, Enterococcus hirae ATCC 10541, Staphylococcus aureus ATCC 6538, ATCC 29213, Methicillin-resistant Staphylococcus aureus (MRSA) CNCTC 7452, Klebsiella pneumoniae ATCC 10031, Acinetobacter baumanni ATCC 19606, Pseudomonas aeruginosa ATCC 15442 and Escherichia coli ATCC 10536 and ATCC 35218. […]

The subject of series [7] is Enterococcus faecium ATCC 700221. It counts as cell-based. Conditions: ESKAPE panel; strain not given, ampicillin > 16 fits the 16-to-0.03 µM series of Evotec. The protocol: as §2, §3
Series [8] relates to Klebsiella pneumoniae ATCC 700603. It counts as cell-based. Conditions: ESKAPE panel; strain not given, ampicillin > 16 fits the 16-to-0.03 µM series of Evotec. The protocol:
as §2, §3

Series [9] has as its system Escherichia coli ATCC 25922. It counts as cell-based. Conditions: strain not given, assigned to the Evotec series. The procedure: as §2, §3
Series [10] concerns human dermal fibroblast (HDF) cell lines. As to the kind of experiment: Neutral red uptake assay (cytotoxicity). Type of series: cell-based. The protocol:
Neutral red uptake assay. To evaluate the cytotoxicity of the peptides against human dermal fibroblast (HDF) cell lines, the inventors purchased the neutral red uptake assay from Essence Line (Praha, Czech Republic). The initial cell culture was sub-cultured in supplemented Dulbecco's Modified Eagle Medium (DMEM) and diluted to a cell density of 1 × 10^5 cells/mL. The diluted culture was then seeded into the wells (1 × 10^4

With “KKKKLKKILKKLFQFINQLDNQLQDIAQNA-NH2 [KDFA2i+7-npNH2]”, in series [1], the “aggregation / solubilization problem (in words)” value is listed as “peptide aggregation”. The “Extent of leakage (in percentage) at increasing peptide-to-lipid ratio (mol/mol) 1:10” value in series [2] (peptide-to-lipid ratio 1:10 (mol/mol)) is “Aggregated peptides and no leakage”. In addition, the “Extent of leakage (in percentage) at increasing peptide-to-lipid ratio (mol/mol) 1:20” value in [2] (peptide-to-lipid ratio 1:20 (mol/mol)) is “Aggregated peptides and no leakage”. In [2], the “Extent of leakage (in percentage) at increasing peptide-to-lipid ratio (mol/mol) 1:50” value was “Aggregated peptides and no leakage”; the “Extent of leakage (in percentage) at increasing peptide-to-lipid ratio (mol/mol) 1:100” value is “Aggregated peptides and no leakage”.

For the substance “KKKKLKKILKKLFQFINQLDNQLQDIKKKK-NH2 [KDFA2i+11-NH2]”, the “Antibacterial activity (MIC in µM) E. coli TOP10” value in [3] was found to be 0.2 µM. The “Antibacterial activity (MIC in µM) S. carnosus” value in [4] came to 0.2 µM. For the same substance, in [5] (hemolysis assay, HRBCs, read-out: Toxicity (EC50 in µM) HRBCs), the half-maximal effective concentration (EC50) is greater than 50 µM. Further, the “MIC against A. baumannii” value in [6] came out at 1.4 µM. For the same substance, the “MIC against E. faecium” value in series [7] was 1.9 µM. Further, in series [8], the “MIC against K. pneumoniae” value is listed as 3.8 µM. In addition, the “MIC against E. coli (ESKAPE panel)” value in series [9] is given as 1.4 µM.

With “RRRRLRRILRRLFQFINQLDNQLQDIRQNR-NH2 [RDFA2i+9-NH2]”, the values for the EC50 in series [10], in series [5] and in series [5] (1 h) were 16000 nM, 0.9 µM and 0.9 µM, respectively. Besides, in [3], the “Antibacterial activity (MIC in µM) E. coli TOP10” value came out at 1.6 µM. Besides, the “Antibacterial activity (MIC in µM) S. carnosus” value in series [4] came out at 0.8 µM. In addition, the “Extent of leakage (in percentage) at increasing peptide-to-lipid ratio (mol/mol) 1:50” value in series [2] is given as 101.1 ± 0.8 percentage. The “Extent of leakage (in percentage) at increasing peptide-to-lipid ratio (mol/mol) 1:100” value in series [2] is recorded as 65.8 ± 4.1 percentage.
